The source of these data is patent US9682966B2, “Kappa opioid ligands” (The Scripps Research Institute, priority 2012, dated 2017).

kappa opioid receptor (OPRK1), sequence (P41145 whole entry): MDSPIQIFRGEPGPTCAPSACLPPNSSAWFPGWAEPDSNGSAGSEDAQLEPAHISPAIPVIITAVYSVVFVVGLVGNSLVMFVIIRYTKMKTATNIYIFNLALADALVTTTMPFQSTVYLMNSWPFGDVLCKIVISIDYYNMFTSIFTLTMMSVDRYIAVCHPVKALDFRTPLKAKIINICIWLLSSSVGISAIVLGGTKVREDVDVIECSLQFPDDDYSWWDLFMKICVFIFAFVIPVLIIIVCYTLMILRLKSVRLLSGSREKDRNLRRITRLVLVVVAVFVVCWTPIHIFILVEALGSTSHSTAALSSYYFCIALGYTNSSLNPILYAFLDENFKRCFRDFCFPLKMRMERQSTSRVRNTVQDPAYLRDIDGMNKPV

This assay concerns the target kappa opioid receptor (OPRK1) (Homo sapiens (Human), UniProt P41145). Description: OPRK1 antagonist assay (b-arrestin-2-TEV / b-lactamase reporter, EC80 U-50488 challenge). The note with it: OPRK1 antagonist assay vs EC80 U-50488. In kind it is cell-based.
As a reminder, the IC50 is the concentration needed to halve the response being measured. The low end stands for higher potency, the high end for lower potency. For the molecule `Cc1ccc2nc(N3CCC(NCC(C)C)CC3)c(-c3noc(C)n3)cc2c1` [compound 413], the midpoint of inhibition, the IC50, lay at 22 nM.

For `COC(=O)c1cc(Br)cnc1N1CCC(NC2CCCCC2)(C(=O)OC)CC1` [C21], the IC50 was more than 10000 nM. Consider `Cc1nc(-c2c(N3CCC(NC4CCCC[C@@H]4O)CC3)nc3ccccc3c2C)no1` (stereo partly drawn) [compound 446], for which the IC50 is 72 nM.
